Reference: patent US5192786A, “Substituted biphenylalkoxyamines” (Ortho Pharmaceutical Corporation, priority 1990, dated 1993)
Converted amounts (≈) assume the structure as drawn. Structures can show the parent of a compound that is named as a salt. Where two headings read alike, the source gives them in different places.

How the values were obtained:
[1] = tested on: cAMP stimulated parietal cell; assay: Isolated parietal cell assay, inhibition of 14C-aminopyrine accumulation, dibutyryl cAMP stimulated; assay type: cell-based, rabbit; conditions: Oryctolagus cuniculus, 20 min, read-out: Isolated Parietal Cells IC50 vs cAMP
Experimental: (§1) The isolated parietal cell assay was conducted using the procedures of Batzri, S. et al., Biochemica et Biophysica Acta 508, 328 (1978) and Soll, A.H. Am. J. Physiol. 238, G366 (1980). Basically, parietal cells were isolated from the fundic mucosa of rabbit stomachs by a four-stage collagenase digestion process. The supernatant fractions from the last two stages of this process contain the individual parietal cells. This cell suspension was centrifuged and reconstituted in a modified Hank's buffer to contain 1-2×10^6 cells/ml. […] This accumulation was stimulated by histamine and was blocked by H2 antagonists. The cells were incubated with 0.4-0.5×10^6 cpm ^14 C-AP, with various concentrations of histamine as a stimulant, 1×10^-5 M isobutylmethylxanthine, and the test compound added in a 20 μl volume of buffer or DMSO. The flasks were incubated in a shaking water bath at 37° C. for 20 minutes. Two aliquots were then taken from each flask and cell pellets were collected by centrifugation. The pellets were solubilized with Protosol (New England Nuclear) and radioactivity determined by liquid scintillation spectrometry. Data are presented as the IC50 vs hist, the concentration of compound required to inhibit ^14 C-AP accumulation in the histamine stimulated parietal cell by 50%.
When dibutyryl cAMP was used to stimulate the cells instead of histamine, a similar inhibition of ^14 C-AP accumulation was measured and the data are presented as the IC50 vs cAMP, the concentration of compound required to inhibit ^14 C-AP accumulation in the cAMP stimulated parietal cell by 50%.

[2] = tested on: histamine stimulated parietal cell; assay: Isolated parietal cell assay, inhibition of 14C-aminopyrine accumulation, histamine stimulated; assay type: cell-based, rabbit; conditions: Oryctolagus cuniculus, 20 min, read-out: Isolated Parietal Cells IC50 vs his
Experimental: as §1

Candida albicans = assay: In vitro antimicrobial activity, minimal inhibitory concentration (agar dilution), Candida albicans; assay type: cell-based, Candida albicans ATC 10231; conditions: read-out: Minimal inhibitory concentration, Candida albicans
Experimental: (§2) A 0.5 mg/ml stock solution of each Example compound was prepared in an appropriate solvent. From this stock, dilutions were prepared in solvent, and 0.2 ml aliquots of the stock and dilutions were added to tubes containing 19.8 ml of Mueller Hinton agar (46°-50° C.). The mixtures were poured into 100 by 15 mm petri dishes and allowed to solidify.
(§3) The test organisms (Candida albicans ATC 10231 and Trichophyton mentagrophytes ATC 22839) were diluted from frozen stock cultures. Inocula were diluted with sterile solution containing 0.1% peptone in water to contain approximately 2×10^5 […] (CFUs) per ml. Plate counts were performed on 1 mL of all inocula.
(§4) Each plate and unadulterated agar growth control was inoculated with the inocula prepared above using a Steer's Replicator method. Plates were then incubated at 32° C. Observations for growth were made at 48 hours.
(§5) The results of this test are reported below in Table 1 as compared to the known antifungal agents, miconazole nitrate and terconazole.

[3] = In vivo anticonvulsant activity, Antimetrazol (pentylenetetrazol-induced convulsions); design: species or system Male CD1 mice; key: +: Active; ±: Active, but weak; -: Inactive at this dose; conditions: p.o., 125 mg/kg pentylenetetrazol s.c. challenge; for Anticonvulsant profile, Antimetrazol (100): 100 mg/kg; for Anticonvulsant profile, Antimetrazol (10): 10 mg/kg
Experimental: Male CD1 mice, fasted at least 16 hours, were divided into groups of 10 and test compounds or vehicle were administered orally by gavage. The vehicle used was 0.5% aqueous methylcellulose solution containing 0.4% (v/v) of Tween 80. One hour later (or at time of suspected peak activity), the mice were challenged with 125 mg/kg of pentylenetetrazol, administered subcutaneously. Pentylenetetrazol was dissolved in 0.9% sodium chloride solution, and the dosage volume for administration of test compounds or the convulsant challenge was 10 ml/kg. Animals were housed individually for observation of convulsions for a period of 30 minutes.
Pentylenetetrazol-induced convulsions in vehicle-treated mice consist of mixed-clonic/tonic seizures. Tonic hindlimb extension and death are terminal consequences. Test compounds that block the hindlimb tonic extensor component of the convulsions in at least 50% of treated mice were considered active. ED50 values of active compounds may be calculated by the method of probits (Finney, 1971).

[4] = In vivo antisecretory activity, gastric secretion in pylorus ligated rats (acid output); design: species or system male Charles River Sprague Dawley derived rats; conditions: Rattus norvegicus, 4 h; 20 mpk, po; four hours after ligation; read-out: Pylorous Ligated Rats, effect on acid output compared to control
[5] = tested on: Trichophyton mentagrophytes; assay: In vitro antimicrobial activity, minimal inhibitory concentration (agar dilution), Trichophyton mentagrophytes; assay type: cell-based, Trichophyton mentagrophytes ATC 22839; conditions: Mueller Hinton agar, 32° C., 48 hours, complete inhibition of growth
Experimental: as §2, §3, §4, §5

[6] = In vivo anticonvulsant activity, Antielectroshock; design: species or system Male CD1 mice; key: +: Active; ±: Active, but weak; -: Inactive at this dose; conditions: p.o.; for Anticonvulsant profile, Antielectroshock (100): 100 mg/kg; for Anticonvulsant profile, Antielectroshock (10): 10 mg/kg
General CNS Behavior = assay type: in vivo, Male CD1 mice; conditions: 100 mg/kg, p.o.
[7] = Mueller Hinton agar, 32° C., 48 hours, complete inhibition of growth
[8] = dibutyryl cAMP stimulated, 14C-aminopyrine accumulation, 37° C., 20 minutes
[9] = histamine stimulated, 14C-aminopyrine accumulation, 37° C., 20 minutes

Row | SMILES | IC50 [1] | IC50 [2] | MIC (Candida albicans; [7]) | IC50 [1, 8] | Anticonvulsant profile, Antimetrazol (100) [3] | IC50 [2, 9] | change in vivo at 20 mg/kg [4] | MIC [5] | Anticonvulsant profile, Antielectroshock (100) [6] | Anticonvulsant profile, Antimetrazol (10) [3] | Anticonvulsant profile, Antielectroshock (10) [6] | General CNS Behavior (General CNS Behavior) | MIC (Candida albicans; 48 h)
1 | CN/C(=N/CCSCc1nc[nH]c1C)NC#N [Cimetidine, cimetidine, reference compound] | > 100000 nM | 820 nM |  |  |  |  |  |  |  |  |  |  | 
2 | C(=C\c1ccc(OCCCCn2ccnc2)cc1)/c1ccccc1 [Example 1, hydrochloride] |  |  | > 50 µg/mL | 450 nM | - | 450 nM | -32% | 50 µg/mL | - |  |  |  | 
3 | C(=C\c1ccc(OCCCn2ccnc2)cc1)/c1ccccc1.Cl [Example 2, (E)-4-(1H-Imidazol-1-yl)propoxystilbene hydrochloride] |  |  | > 50 µg/mL | 270 nM | + | 160 nM | -4% | 10 µg/mL | + | - | - |  | 
4 | CCCN(CCC)CCCOc1ccc(/C=C/c2cccc(OC)c2)cc1 [Example 3, (E)-3'-Methoxy-4-dipropylamino-propoxystilbene hydrochloride] |  |  | 50 µg/mL | 110 nM | + | 100 nM | -92% | 50 µg/mL | - | - |  |  | 
5 | Clc1cccc(/C=C/c2ccc(OCCCCn3ccnc3)cc2)c1 [Example 5, hydrochloride] |  |  | > 50 µg/mL | 100 nM |  | 180 nM | -12% | > 50 µg/mL |  |  |  |  | 
6 | Cl.c1ccc(-c2ccc(OCCCCn3ccnc3)cc2)cc1 [Example 6, 1-(1H-Imidazol-1-ylbutoxy)-4-phenylbenzene hydrochloride] |  |  | 1 µg/mL | 160 nM | ± | 170 nM | -24% | 1 µg/mL | ± | - | - | Wk CNS Depr | 
7 | CCCN(CCC)CCCCOc1ccc(-c2ccccc2)cc1.Cl [Example 7, 1-(Dipropylaminobutoxy)-4-phenylbenzene hydrochloride] |  |  | 50 µg/mL | 260 nM | ± | 120 nM | -45% | 1 µg/mL | ± | - | - |  | 
8 | Cl.c1ccc(-c2ccc(OCCCn3ccnc3)cc2)cc1 [Example 8, 1-(1H-Imidazol-1-ylpropoxy)-4-phenylbenzene hydrochloride] |  |  | 1 µg/mL | 320 nM | ± | 230 nM | -33% | 1 µg/mL | ± | - | - | Wk CNS Depr | 
9 | Cl.c1ccc(-c2ccc(OCCCCCn3ccnc3)cc2)cc1 [Example 9, 1-(1H-Imidazol-1-ylpentoxy)-4-phenylbenzene hydrochloride] |  |  | 50 µg/mL | 110 nM |  | 90 nM | -54% | 10 µg/mL |  |  | - |  | 
10 | c1ccc(-c2ccc(OCCCCCn3cncn3)cc2)cc1 [Example 10, hydrochloride] |  |  | > 50 µg/mL | < 10000 nM |  | < 10000 nM |  | 10 µg/mL |  |  |  |  | 
11 | Cl.O=C(c1ccc(Cl)cc1)c1ccc(OCCCn2ccnc2)cc1 [Example 11, 4'-Chloro-4-(1H-imidazol-1-ylpropoxy) benzophenone hydrochloride] |  |  | > 50 µg/mL | 280 nM | - | 280 nM | -35% | 1 µg/mL | - |  |  |  | 
12 | c1ccc(Cc2ccc(OCCCn3ccnc3)cc2)cc1 [Example 12, 1-[4-(1H-Imidazol-1-ylpropoxyphenyl)-1-phenylmethane hydrochloride] |  |  | 50 µg/mL | 300 nM | + | 140 nM | -51% | 10 µg/mL | + | - | - | Mod CNS Depr | 
13 | Clc1ccc(COC(Cn2ccnc2)c2ccc(Cl)cc2Cl)c(Cl)c1 (stereo not drawn) [Miconazole Nitrate, miconazole nitrate, reference compound] |  |  |  |  |  |  |  | 5 µg/mL |  |  |  |  | 1 µg/mL
14 | CNC(=C[N+](=O)[O-])NCCSCc1ccc(CN(C)C)o1 [Ranitidine, ranitidine, reference compound] |  |  |  | > 100000 nM |  | 40 nM |  |  |  |  |  |  | 
15 | CC(C)N1CCN(c2ccc(OCC3COC(Cn4cncn4)(c4ccc(Cl)cc4Cl)O3)cc2)CC1 (stereo not drawn) [Terconazole, terconazole, reference compound] |  |  | 0.1 µg/mL (≈ 0.188 µM) |  |  |  |  | 50 µg/mL (≈ 93.9 µM) |  |  |  |  | 
